According to patent publication US20240174690A1, “ANNULATED 2-AMINO-3-CYANO THIOPHENES AND DERIVATIVES FOR THE TREATMENT OF CANCER” (BOEHRINGER INGELHEIM INTERNATIONAL GMBH, priority 2021, published 2024):
Where two headings read alike, the source gives them in different places.

How the values were obtained:
[1] = tested on: NCI-H358 cells; assay: NCI-H358 CTG proliferation assay (120 h) (NSCLC, G12C); type: cell-based, human; details: Homo sapiens
Outline: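 IC50 values derive from four-parameter nonlinear regression of CellTiter-Glo viability (RLU relative to DMSO wells) after 120 h of exposure. Cells were plated in RPMI-1640 + 10% FCS at 2000 per well (assay 1) or 200 per well (assay 2). Untreated cells were measured at compound addition as T0.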

[2] = tested on: AsPC-1 cells; assay: AsPC-1 CTG proliferation assay (120 h) (pancreatic cancer, G12D); type: cell-based; details: Homo sapiens, ASPC1
Experimental: AsPC-1 CTG Proliferation Assay (120 h) (Pancreatic Cancer, G12D)
The CTG assay is designed to measure quantitatively the proliferation of AsPC-1 cells (ATCC […]), using the CellTiter Glow Assay Kit (Promega G7571). Cells are grown in RPMI medium (ATCC) supplemented with Fetal Calf Serum (Life Technologies, Gibco BRL, Cat. No. 10270-106). On “day 0” 2000 AsPC-1 cells are seeded in 60 μL RPMI ATCC+10% FCS+Penstrep in a 384-well plate, flat and clear bottom (Greiner, PNr. 781091). Cells are then incubated in the plates at 37° C. in a CO2 incubator overnight. On day 1, compounds (10 mM stock in DMSO) are added with the ECHO acoustic liquid handler system (Beckman Coulter), including DMSO controls. Plates are incubated for 120 h, and cell viability is measured using CellTiter-Glo luminescent cell viability reagent (Promega product code G7570). Viability (stated as percent of control) is defined as relative luminescence units RLU of each well divided by the RLU of cells in DMSO controls. IC50 values are determined from viability measurements by non-linear regression using a four-parameter model.

[3] = Caco-2 assay (permeability PappAB, PappBA, efflux ratio); type: in vitro ADME; details: human, Caco-2, 10 μM test compound, pH 7.4; for Papp A→B at 90 min, 10 μM: apical to basolateral; for efflux ratio at 90 min, 10 μM: efflux ratio PappBA/PappAB, read-out: Caco ER
Text: The assay provides information on the potential of a compound to pass the cell membrane, on the extent of oral absorption as well as on whether the compound is actively transported by uptake and/or efflux transporters. Permeability measurements across polarized, confluent Caco-2 cell monolayers grown on permeable filter supports (Corning, catalog #3391) are used. […] The receiver and donor compartments contain 0.25% bovine serum albumine (BSA) in assay buffer. Passive diffusion and/or active transport of compounds across the monolayer is measured in both apical to basolateral (a-b) and basolateral to apical (b-a) direction. a-b permeability (PappAB) represents drug absorption from the intestine into the blood and b-a permeability (PappBA) drug secretion from the blood back into the intestine via both passive permeability as well as active transport mechanisms mediated by efflux and uptake transporters that are expressed on the Caco-2 cells. After a pre-incubation of 25-30 min at 37° C., at predefined time points (0, 30, 60 and 90 min), samples were taken from the receiver and donor compartment, respectively. Concentrations of test compounds in samples were measured by HPLC/MS/MS, samples from the donor compartment were diluted 1:50 (v:v) with assay buffer, samples from receiver compartment were measured without dilution.
Apparent permeabilities in a-b (PappAB) and b-a (PappBA) directions are calculated according to the formula:
[formula] • Vrec [mL]: buffer volume in receiver compartment • Cdon [μmol/mL]: concentration of test compound in donor compartment at t=0 • ΔCrec: difference between concentrations of test compound in receiver compartment at start and end of incubation time • Δt: Incubation time • Vrec·ΔCrec/Δt [μmol/min]: Amount of compound transferred to receiver compartment per time • A [cm^2]: filter surface
Caco-2 efflux ratios (ER) are calculated as the ratio of PappBA/PappAB.

[4] = tested on: LOVO cells; assay: LOVO CTG proliferation assay (120 h) (CRC, G13D); type: cell-based; details: Homo sapiens, CTG 120 h
Experimental: LOVO CTG Proliferation Assay (120 h) (CRC, G13D)
LOVO cells (ATCC CCL-229) are dispensed into 384-well plates, flat and clear bottom (Greiner, PNr. 781091) at a density of 1000 cells per well in 60 μL DMEM (Sigma D6429)+10% Fetal Calf Serum (HyClone, PNr.: SH30084.03) and incubated at 37° C. in a CO2 incubator overnight. The next day, compounds (10 mM stock in DMSO) are added with the ECHO acoustic liquid handler system (Beckman Coulter), including DMSO controls. Plates are incubated for 120 h, and cell viability is measured using CellTiter-Glo luminescent cell viability reagent (Promega product code G7570). Viability (stated as percent of control) is defined as relative luminescence units RLU of each well divided by the RLU of cells in DMSO controls. IC50 values are determined from viability measurements by non-linear regression using a four-parameter model.

[5] = assay 2, CTG, read-out: H358 (assay 2) IC50
[6] = assay 1, CTG, read-out: H358 (assay 1) IC50

C[C@H](Oc1cc(-n2cncn2)nc(-c2noc3c2CCC[C@@]32CCCc3sc(N)c(C#N)c32)n1)[C@@H]1CCCN1C [II-70]
IC50 [1, 5]: 0.131 µM
IC50 [2]: 1.94 µM
Papp A→B at 90 min, 10 μM [3]: 170 nm/s
efflux ratio at 90 min, 10 μM [3]: 1.4
IC50 [4]: 0.077 µM

C[C@H](Oc1cc(-c2cc[nH]n2)nc(-c2noc3c2CCC[C@@]32CCCc3sc(N)c(C#N)c32)n1)[C@@H]1CCCN1C [II-71]
IC50 [1, 5]: 0.209 µM
IC50 [2]: 1.67 µM
Papp A→B at 90 min, 10 μM [3]: 5 nm/s
efflux ratio at 90 min, 10 μM [3]: 63.3
IC50 [4]: 0.05 µM

C[C@H](Oc1cc(N2CCN(C)C2=O)nc(-c2noc3c2CCC[C@@]32CCCc3sc(N)c(C#N)c32)n1)[C@@H]1CCCN1C [II-75]
IC50 [1, 6]: 0.049 µM
IC50 [1, 5]: 0.01 µM
IC50 [2]: 1.56 µM
Papp A→B at 90 min, 10 μM [3]: 50 nm/s
efflux ratio at 90 min, 10 μM [3]: 5
IC50 [4]: 0.279 µM

C[C@H](Oc1cc(C2CCOCC2)nc(-c2noc3c2CCC[C@@]32CCCc3sc(N)c(C#N)c32)n1)[C@@H]1CCCN1C [II-76]
IC50 [1, 5]: 0.507 µM
IC50 [2]: 3.97 µM
Papp A→B at 90 min, 10 μM [3]: 65 nm/s
efflux ratio at 90 min, 10 μM [3]: 3.7
IC50 [4]: 0.051 µM

CC(=O)N1CC=C(c2cc(O[C@@H](C)[C@@H]3CCCN3C)nc(-c3noc4c3CCC[C@@]43CCCc4sc(N)c(C#N)c43)n2)CC1 [II-81]
IC50 [1, 5]: 1.2 µM
IC50 [2]: 4.86 µM
Papp A→B at 90 min, 10 μM [3]: 20 nm/s
efflux ratio at 90 min, 10 μM [3]: 23
IC50 [4]: 0.289 µM

C[C@H](Oc1cc(-c2cncnc2)nc(-c2noc3c2CCC[C@@]32CCCc3sc(N)c(C#N)c32)n1)[C@@H]1CCCN1C [II-82]
IC50 [1, 5]: 0.807 µM
IC50 [2]: 5.45 µM
Papp A→B at 90 min, 10 μM [3]: 25 nm/s
efflux ratio at 90 min, 10 μM [3]: 9.2
IC50 [4]: 0.728 µM

C[C@H](Oc1cc(-c2ccccn2)nc(-c2noc3c2CCC[C@@]32CCCc3sc(N)c(C#N)c32)n1)[C@@H]1CCCN1C [II-85]
IC50 [1, 5]: 0.023 µM
IC50 [2]: 1.29 µM
efflux ratio at 90 min, 10 μM [3]: 1.2
IC50 [4]: 0.209 µM

C[C@H](Oc1cc(-c2cnn(C)n2)nc(-c2noc3c2CCC[C@@]32CCCc3sc(N)c(C#N)c32)n1)[C@@H]1CCCN1C [II-86]
IC50 [1, 5]: 0.993 µM
IC50 [2]: 4.14 µM
Papp A→B at 90 min, 10 μM [3]: 120 nm/s
efflux ratio at 90 min, 10 μM [3]: 0.8
IC50 [4]: 0.077 µM

C[C@H](Oc1cc(-c2cn[nH]c2)nc(-c2noc3c2CCC[C@@]32CCCc3sc(N)c(C#N)c32)n1)[C@@H]1CCCN1C [II-87]
IC50 [1, 5]: 0.106 µM
IC50 [2]: 3.06 µM
Papp A→B at 90 min, 10 μM [3]: < 17 nm/s
IC50 [4]: 0.427 µM

C[C@H](Oc1cc([C@H]2CCOC2)nc(-c2noc3c2CCC[C@@]32CCCc3sc(N)c(C#N)c32)n1)[C@@H]1CCCN1C [II-88]
IC50 [1, 5]: 0.126 µM
IC50 [2]: 1.98 µM
Papp A→B at 90 min, 10 μM [3]: 120 nm/s
efflux ratio at 90 min, 10 μM [3]: 1.8
IC50 [4]: 0.062 µM

C[C@H](Oc1cc(-c2ccn(-c3ccccc3)n2)nc(-c2noc3c2CCC[C@@]32CCCc3sc(N)c(C#N)c32)n1)[C@@H]1CCCN1C [II-89]
IC50 [1, 5]: 0.22 µM
IC50 [2]: 3.04 µM
Papp A→B at 90 min, 10 μM [3]: < 100 nm/s
IC50 [4]: 0.453 µM

CO[C@@H]1C[C@@H]([C@H](C)Oc2cc(-c3ccn(C)n3)nc(-c3noc4c3CCC[C@@]43CCCc4sc(N)c(C#N)c43)n2)N(C)C1 [II-91]
IC50 [1, 6]: 0.078 µM
IC50 [1, 5]: 0.019 µM
IC50 [2]: 2.26 µM
Papp A→B at 90 min, 10 μM [3]: 90 nm/s
efflux ratio at 90 min, 10 μM [3]: 1.6
IC50 [4]: 0.136 µM

C[C@H](Oc1cc([C@@H]2CCOC2)nc(-c2noc3c2CCC[C@@]32CCCc3sc(N)c(C#N)c32)n1)[C@@H]1CCCN1C [II-94]
IC50 [1, 6]: 0.02 µM
IC50 [1, 5]: 0.02 µM
IC50 [2]: 0.985 µM
Papp A→B at 90 min, 10 μM [3]: 130 nm/s
efflux ratio at 90 min, 10 μM [3]: 2.1
IC50 [4]: 0.051 µM

C[C@H](Oc1cc(C2COCCO2)nc(-c2noc3c2CCC[C@@]32CCCc3sc(N)c(C#N)c32)n1)[C@@H]1CCCN1C (some centres unmarked) [II-95]
IC50 [1, 5]: 0.4 µM
IC50 [2]: 3.32 µM
Papp A→B at 90 min, 10 μM [3]: 120 nm/s
efflux ratio at 90 min, 10 μM [3]: 2.2
IC50 [4]: 0.149 µM

C[C@H](Oc1cc(-c2ccn(C)n2)nc(-c2noc3c2CCC[C@@]32CCCc3sc(N)c(C#N)c32)n1)[C@@H]1CCCN1C [II-96]
IC50 [1, 5]: 0.098 µM
IC50 [2]: 2.24 µM
Papp A→B at 90 min, 10 μM [3]: 65 nm/s
efflux ratio at 90 min, 10 μM [3]: 7.3
IC50 [4]: 0.231 µM

C[C@H](Oc1cc(-c2cccc(CO)c2)nc(-c2noc3c2CCC[C@@]32CCCc3sc(N)c(C#N)c32)n1)[C@@H]1CCCN1C [II-97]
IC50 [1, 5]: 0.242 µM
IC50 [2]: 2.36 µM
Papp A→B at 90 min, 10 μM [3]: < 97 nm/s
IC50 [4]: 0.683 µM

C[C@H](Oc1cc(-c2ccn(C3CC3)n2)nc(-c2noc3c2CCC[C@@]32CCCc3sc(N)c(C#N)c32)n1)[C@@H]1CCCN1C [II-98]
IC50 [1, 5]: 0.242 µM
IC50 [2]: 3.34 µM
efflux ratio at 90 min, 10 μM [3]: 1.5
IC50 [4]: 0.608 µM

C[C@H](Oc1cc(N2CCC(C#N)C2)nc(-c2noc3c2CCC[C@@]32CCCc3sc(N)c(C#N)c32)n1)[C@@H]1CCCN1C (some centres unmarked) [II-99]
IC50 [1, 5]: 1.34 µM
IC50 [2]: 3.24 µM
Papp A→B at 90 min, 10 μM [3]: 11 nm/s
efflux ratio at 90 min, 10 μM [3]: 23.6
IC50 [4]: 0.286 µM

C[C@H](Oc1cc(-c2ccc(N)nc2)nc(-c2noc3c2CCC[C@@]32CCCc3sc(N)c(C#N)c32)n1)[C@@H]1CCCN1C [II-101]
IC50 [1, 5]: 0.195 µM
IC50 [2]: 2.99 µM
Papp A→B at 90 min, 10 μM [3]: 20 nm/s
efflux ratio at 90 min, 10 μM [3]: 7
IC50 [4]: 1.02 µM

C[C@H](Oc1cc(-n2cncc3ccnc2-3)nc(-c2noc3c2CCC[C@@]32CCCc3sc(N)c(C#N)c32)n1)[C@@H]1CCCN1C [II-105]
IC50 [1, 5]: 0.046 µM
IC50 [2]: 1.32 µM
Papp A→B at 90 min, 10 μM [3]: < 100 nm/s
efflux ratio at 90 min, 10 μM [3]: 1.1
IC50 [4]: 0.15 µM
